The values that follow come from ChEMBL document CHEMBL3603838, “Guanidinium compounds with sub-micromolar activities against Mycobacterium tuberculosis. Synthesis, characterization and biological evaluations” (Bioorg Med Chem, 2015).

The term MIC denotes the lowest concentration found to suppress growth. The term IC50 denotes the concentration at which inhibition is half-maximal.

Values after ≈ are worked out from the molar mass of the structure shown.

The nature of data set [1]: Selectivity index, ratio of CC50 for human MRC5 cells to MIC for isoniazid-resistant Mycobacterium tuberculosis MYC5165. The conditions noted are these: read-out: Selectivity Index. The format is toxicity, cell-based.
The subject of data set [2] is Mycobacterium tuberculosis. Put plainly: Antimycobacterial activity against isoniazid-resistant Mycobacterium tuberculosis MYC5165 after 6 days by MTT assay. The data set is classed as functional, organism-based. Particulars: MYC5165, 144 h.
The test system of data set [3] is Mycobacterium tuberculosis. Put plainly: Ratio of isoniazid MIC to compound MIC for isoniazid-resistant Mycobacterium tuberculosis MYC5165. The format is functional.
The test system of data set [4] is Mycobacterium tuberculosis. Put plainly: Ratio of CX1 MIC to compound MIC for isoniazid-resistant Mycobacterium tuberculosis MYC5165. The format is functional.
The test system of data set [5] is Mycobacterium tuberculosis. Put plainly: Ratio of streptomycin MIC to compound MIC for isoniazid-resistant Mycobacterium tuberculosis MYC5165. The format is functional.

Turning to `N=C(N)NCCc1cc2c(O)c(c1)Cc1cc(CCNC(=N)N)cc(c1O)Cc1cc(CCNC(=N)N)cc(c1O)Cc1cc(CCNC(=N)N)cc(c1O)C2`, in data set [1], the selectivity ratio was greater than 256. The MIC in data set [2] was determined as 0.8 µM (≈ 0.612 µg/mL).

With `N=C(N)NCCc1ccc(OCc2ccccc2COc2ccc(CCNC(=N)N)cc2)cc1.O=C(O)C(F)(F)F`, the Ratio in data set [3] stood at 4. Further, in data set [1], the selectivity ratio was determined as 45. Further, the MIC in data set [2] amounted to 3.1 µM. Besides, the IC50 in data set [2] (read-out: IC50) is 900 nM.

Take `N=C(N)NCCc1ccc(OCc2cccc(COc3ccc(CCNC(=N)N)cc3)c2)cc1.O=C(O)C(F)(F)F`: the Ratio in data set [3] and in data set [4] was 16 throughout. Moreover, the selectivity ratio in data set [1] turned out to be 62. In addition, in data set [2], the MIC amounted to 0.8 µM. Moreover, the IC50 in data set [2] (read-out: IC50) worked out at 300 nM.

With `N=C(N)NCCc1ccc(OCc2ccc(COc3ccc(CCNC(=N)N)cc3)cc2)cc1.O=C(O)C(F)(F)F`, the Ratio in data set [3] is on record as 60; in data set [4], 16. Also, the selectivity ratio in data set [1] stood at 38. Further, inhibition of growth in data set [2] (MIC) required 0.8 µM. Moreover, in data set [2] (read-out: IC50), the IC50 was 200 nM.

Take `N=C(N)NCCc1ccc(OCc2cc(COc3ccc(CCNC(=N)N)cc3)cc(COc3ccc(CCNC(=N)N)cc3)c2)cc1.O=C(O)C(F)(F)F`: the Ratio is recorded as 4 in data set [5] and greater than 125 in data set [3]. Also, the selectivity ratio in data set [1] was 198. The compound further showed an MIC in data set [2] of 0.2 µM.

For `N=C(N)NCCc1ccc(OCc2cc(COc3ccc(CCNC(=N)N)cc3)c(COc3ccc(CCNC(=N)N)cc3)cc2COc2ccc(CCNC(=N)N)cc2)cc1.O=C(O)C(F)(F)F`, in data set [3], the Ratio is greater than 125. Further, the selectivity ratio in data set [1] amounted to 377. For the same compound, the MIC in data set [2] came to 0.1 µM. Further, in data set [2] (read-out: IC50), the IC50 was found to be 30 nM.

For the compound `O=C(O)c1cn(C2CC2)c2cc(N3CCNCC3)c(F)cc2c1=O` [CIPROFLOXACIN], in data set [2], the IC50 came to 1800 nM and inhibition of growth (MIC) required 2.5 µM (≈ 0.828 µg/mL).

As to `NNC(=O)c1ccncc1` [ISONIAZID], in data set [1], the selectivity ratio was greater than 6. The compound further displayed an MIC in data set [2] of 12.5 µM (≈ 1.71 µg/mL). Further, the IC50 in data set [2] (read-out: IC50) was found to be 650 nM.

With `CN[C@@H]1[C@H](O[C@H]2[C@H](O[C@H]3[C@H](O)[C@@H](O)[C@H](N=C(N)N)[C@@H](O)[C@@H]3N=C(N)N)O[C@@H](C)[C@]2(O)C=O)O[C@@H](CO)[C@H](O)[C@H]1O` [STREPTOMYCIN], the MIC in data set [2] amounted to 2.7 µM (≈ 1.57 µg/mL).
